These are literature values, as cited in patent publication US20220403162A1, “POLYURETHANE COMPOSITIONS SALTED WITH BISBIGUANIDE” (Lubrizol Advanced Materials, Inc., priority 2019, published 2022).

Take `[H]/N=C(\N/C(=N/[H])NCCCCCCNC(=N)NC(=N)Nc1ccc(Cl)cc1)Nc1ccc(Cl)cc1` [Chlorhexidine, 1,6-bis(4-chloro-phenylbiguanido)hexane]: for the setting “quoted from US 2004/0052831 A1”, the “solubility in water or alcohol” value is recorded as “not soluble”.
Consider `N=C(NCCCCCCNC(=N)NC(=N)Nc1ccc(Cl)cc1)NC(=N)Nc1ccc(Cl)cc1.O=C(O)[C@H](O)[C@@H](O)[C@H](O)[C@H](O)CO.O=C(O)[C@H](O)[C@@H](O)[C@H](O)[C@H](O)CO` [CHG, chlorhexidine digluconate], for which the solubility in water result (The Merck Index) was “at least 50%”.
